Each structure is given as a SMILES string.

The test deals with Histamine H3 receptor (Homo sapiens, UniProt Q9Y5N1). The test is described as follows: Displacement of [125I]iodoproxyfan human histamine H3 receptor. On the technique in general: Displacement assays read how much labelled ligand stays bound in the presence of the test substance.
Histamine H3 receptor, sequence (Q9Y5N1 whole entry): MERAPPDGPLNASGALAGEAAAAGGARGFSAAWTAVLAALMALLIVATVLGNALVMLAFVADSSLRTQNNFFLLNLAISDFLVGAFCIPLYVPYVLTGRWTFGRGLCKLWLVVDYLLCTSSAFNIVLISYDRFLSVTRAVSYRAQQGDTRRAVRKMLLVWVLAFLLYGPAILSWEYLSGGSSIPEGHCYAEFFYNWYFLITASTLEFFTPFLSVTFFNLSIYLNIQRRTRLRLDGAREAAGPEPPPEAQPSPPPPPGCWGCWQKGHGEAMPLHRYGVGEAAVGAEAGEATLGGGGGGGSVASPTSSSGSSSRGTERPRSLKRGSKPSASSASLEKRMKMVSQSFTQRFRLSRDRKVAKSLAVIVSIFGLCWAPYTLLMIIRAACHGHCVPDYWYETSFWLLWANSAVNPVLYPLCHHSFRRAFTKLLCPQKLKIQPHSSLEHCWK
One may read the Ki as a dissociation constant, usually derived from enzyme kinetics or from competition with a known ligand. Low values mean tighter binding, high ones weaker binding. `C1CCN(CCCOc2nc3c(s2)CCOC3)CC1` displayed an inhibitory constant (Ki) of 344 nM.
In the case of `Brc1nc(OCCCN2CCCCC2)sc1-c1ccccc1` it was 93 nM; in that of `CN1CCc2sc(OCCCN3CCCCC3)nc2C1`, 24 nM; in that of `C1CCN(CCCOc2nc3c(s2)CCCC3)CC1`, 357 nM.
Next, `CN(C)CCCOc1nc2c(s1)CCOC2`: greater than 1000 nM; `CN(C)CCCOc1nc2c(s1)CCN(C)C2`: 257 nM; `CN(C)CCCOc1nc2c(s1)CCCC2`: greater than 1000 nM.
As to `CC(=O)c1nc(OCCCN2CCCCC2)sc1C`, the Ki was 155 nM.
Next, `c1ccc(CN2CCc3sc(OCCCN4CCCCC4)nc3C2)cc1`: 261 nM; `Cc1nc(OCCCN2CCCCC2)sc1-c1ccccc1`: 41 nM.
Next, `C1CCN(CCCOc2nc3c(s2)CCN(CCCN2CCCCC2)C3)CC1`: 20 nM.
Compound `CN(C)CCCOc1nc2c(s1)CCCC2=O` returned a Ki of 153 nM.
In the case of `CCN1CCc2sc(OCCCN3CCCCC3)nc2C1` it was 14 nM.
In the case of `c1ccc(-c2nc(OCCCN3CCCCC3)sc2-c2ccccc2)cc1` it was 11.2 nM.
Next, `O=C1CCCc2sc(OCCCN3CCCCC3)nc21`: greater than 1000 nM.

(Values after ChEMBL document CHEMBL1255520, “Azole derivatives as histamine H3 receptor antagonists, part I: thiazol-2-yl ethers” (Bioorg Med Chem Lett, 2010).)
